In test [1] the target is T1, mTOR (Homo sapiens, UniProt P42345).
T1 construct: purchased Invitrogen Corporation (Carlsbad/CA, USA) PV4753
In words: Biochemical assay for m-TOR by TR-FRET. Conditions: 8 μM ATP, 400 nM GFP-4EBP1, 0.5 nM mTOR. How it is done: Biochemical Assay for m-TOR by TR-FRET.
Assay components are purchased from Invitrogen Corporation (Carlsbad/CA, USA): GFP-4EBP1 (Cat. No. PV4759), Tb3+-α-p4EBP1 [pThr46] Antibody (Cat. No. PV4757), proprietary TR-FRET dilution buffer (Cat. No. PV3574), mTOR protein (Cat. No. PV4753).
Then 5 μL of ATP (8 μM final concentration) and GFP-4EBP1 (400 nM final concentration) with 5 μL mTOR proteins (0.5 nM final concentration) are incubated at rt. The standard reaction buffer for the TR-FRET mTOR assay contained 50 mM HEPES pH 7.5, 10 mM MnCl2, 50 mM NaCl, 1 mM EGTA, 1 mM DTT. Reactions were stopped with 10 μL of a mixture of EDTA containing the Tb3+-α-p4EBP1-[pT46] detection Ab (0.5 nM) in TR-FRET dilution buffer (proprietary to IVG). Plates are read 15 mins later in a Synergy2 reader using an integration time of 0.2 seconds and a delay of 0.1 seconds. […] A standard compound is used as a reference compound and included in all assay plates in the form of 16 dilution points in duplicate.

For test [2], the system named is PKB Ser473 phosphorylation in Rat1-myr-HA-p110 alpha cells. In words: Reverse protein array assay, PKB Ser473 phosphorylation in Rat1-myr-p110 alpha cells. Format: cell-based. Conditions: 0.5 h, pAkt Ser473, 30 minutes compound incubation, read-out: p-PKB IC50. How it is done:
(§1) The Rat1-myr-HA-p110 alpha, beta and delta cells were trypsinized and counted with a CASY TT cell counter (Schärfe System GmbH, Reutlingen Germany). […] The plates were incubated at 37° C. and 5% CO2 under humidified condition for at least 20 h. Compound of formula I working solutions were prepared freshly as serial 8 step dilutions (vol/vol) in DMSO on the day of the experiment. […] The final DMSO concentration was kept constant at 0.2%. cell culture medium containing 0.2% DMSO was used as vehicle treatment control. Post incubation, the cells were treated with the serial compound dilution. 50 μl of the compound medium mixture was added to the wells containing cells and 150 μl DMEM medium and incubated for 30 minutes (37° C., 5% CO2). After 30 minutes of incubation, the medium mixture was quickly removed by aspiration. […] 50 μl of the described lysis buffer mix was added to each well, followed by 10 minutes of incubation on ice.
(§2) The samples were spotted onto ZeptoMARKt PWG protein microarray chips (Zeptosens, Witterswil, Switzerland) with the piezoelectric microdispense-based, non-contact Nano-Plotter 2.1 (GeSiM, Grosserkmannsdorf, Germany). Each sample was spotted at 4 different sample concentrations (d1=100%, d2=75%, d3=50%, d4=25%) by diluting the cell lysate with the corresponding volume of lysis buffer mix. After spotting the ZeptoMARK® protein microarrays, the chips are incubated for 1 hour at 37° C. […] After 20 minutes of blocking the chips are extensively rinsed with deionized water (Milli-Q quality, 18MΩ×cm) and dried in a nitrogen air flow.
(§3) After incubation, the arrays were washed twice with 200 μl CAB1 buffer. […] The fluorescence signal was assessed with exposure times of 1, 3, 5 and 10 seconds, depending on the intensity of the signal. The resulting four images taken per array are stored as 16-bit TIF files.
(§4) The fluorescence images for each array were analyzed with the ZeptoVIEW Pro 2.0 software (Zeptosens, Witterswil, Switzerland) and the relative fluorescence intensity for each signal was calculated.

Test [3] deals with PKB Ser473 phosphorylation in Rat1-myr-HA-p110 beta cells. In words: Reverse protein array assay, PKB Ser473 phosphorylation in Rat1-myr-p110 beta cells. In kind it is cell-based. Conditions: 0.5 h, pAkt Ser473, 30 minutes incubation, read-out: p-PKB IC50. How it is done:
as §1, §2, §3, §4

Test [4] relates to PKB Ser473 phosphorylation in Rat1-myr-HA-p110 delta cells. In words: Reverse protein array assay, PKB Ser473 phosphorylation in Rat1-myr-p110 delta cells. In kind it is cell-based. As to conditions: read-out: p-PKB IC50. How it is done:
as §1, §2, §3, §4

Test [5] deals with S6 Ribosomal Protein phosphorylation Ser235/236 in TSC1 null mouse embryo fibroblast (MEF) cells. Description: Reverse protein array assay, S6 Ribosomal Protein phosphorylation Ser235/236 in TSC1 null MEF cells. Format: cell-based. As to conditions: 1 h, pS6 ribosomal protein Ser235/236, 60 minutes incubation, read-out: p-S6 IC50. How it is done:
as §1, with “TSC1−/−” for “Rat1-myr-HA-p110 alpha, beta and delta”, “(Schirfe” for “(Schärfe”, “Working” for “Compound of formula I working”, “0.02%.” for “0.2%.”, “0.02%” for “0.2%”, “60” for “30”
The spotting of the chips follows the previous described method.

Test [6] has as its target T2, PI3K alpha (Homo sapiens, UniProt P42336).
T2 construct: p85(iSH2) fusion partner (see partner chain) (N); His tag (C); made in house; host or cells: baculovirus; Tn5 (Trichoplusia ni) or TiniPro insect cells
Description: PI3K alpha kinase assay (Kinase-Glo luminescence). Format: biochemical. How it is done:
In a more preferred assay, the kinase reaction is performed in a final volume of 10 μL per well of a low volume non binding CORNING, 384 well black plate (Cat. No. #3676). The final concentrations of ATP and phosphatidyl inositol (PI) in the assay are 1 μM and 10 μg/mL respectively. The reaction is started by the addition of ATP.
The components of the assay are added per well as follows:
[…] in 90% DMSO per well, in columns 1-20, 8 concentrations (1/3 and 1/3.33 serial dilution step) in single. • Low control: […] of 90% DMSO in half the wells of columns 23-24 (0.45% in final). • High control: […] of reference compound (e.g. compound of Example 7 in WO 2006/122806) in the other half of columns 23-24 (2.5 μM in final). • Standard: […] of reference compound as just mentioned diluted as the test compounds in columns 21-22 • 20 mL ‘buffer’ are prepared per assay: • 200 μL of 1M TRIS HCl pH7.5 (10 mM in final) • 60 μL of 1M MgCl2 (3 mM in final) • 500 μL of 2M NaCl (50 mM in final) • 100 μL of 10% CHAPS (0.05% in final) • 200 μL of 100 mM DTT (1 mM in final) • 18.94 mL of nanopure water • 10 mL ‘PI’ are prepared per assay: • 200 μL of 1 mg/ml L-alpha-Phosphatidylinositol (Liver Bovine, Avanti Polar Lipids Cat. No. 840042C MW=909.12) prepared in 3% OctylGlucoside (10 μg/ml in final) • 9.8 mL of ‘buffer’ • 10 mL ‘ATP’ are prepared per assay: • 6.7 μL of 3 mM stock of ATP giving a final concentration of 1 μM per well • 10 mL of ‘buffer’ • 2.5 mL of each PI3K construct are prepared per assay in ‘PI’ with the following final concentration: • 10 nM PI3K alfa EMV B1075 • 25 nM beta EMV BV949 • 10 nM delta EMV BV1060 • 150 nM gamma EMV BV950 • 5 μL of ‘PI/PI3K’ are added per well. • 5 μl ‘ATP’ are added per well to start the reaction. • The plates are then incubated at room temperature for 60 minutes (alfa, beta, delta) or 120 minutes (gamma). • The reaction is terminated by the addition of 10 μL Kinase-Glo (Promega Cat. No. #6714). • The assay plates are read after 10 minutes in Synergy 2 reader (BioTek, Vermont USA) with an integration time of 100 milliseconds and sensitivity set to 191. • Output: The High control is around 60'000 counts and the Low control is 30'000 or lower • This luminescence assay gives a useful Z′ ratio between 0.4 and 0.7
Two different constructs, BV 1052 and BV 1075, are used to generate the PI3 Kinase a proteins for compound screening.
IC50 is determined by a four parameter curve fitting routine that comes along with “excel fit”. […] Alternatively, IC50 values are calculated using idbsXLfit model 204, which is a 4 parameter logistic model.
In general terms: In Kinase-Glo more light means more ATP remaining.

Some results are limits rather than exact numbers.

The record followed here is US20140005163A1 (NOVARTIS AG, priority 2010, published 2014).

T1 sequence (P42345 1360-2549 limits assumed): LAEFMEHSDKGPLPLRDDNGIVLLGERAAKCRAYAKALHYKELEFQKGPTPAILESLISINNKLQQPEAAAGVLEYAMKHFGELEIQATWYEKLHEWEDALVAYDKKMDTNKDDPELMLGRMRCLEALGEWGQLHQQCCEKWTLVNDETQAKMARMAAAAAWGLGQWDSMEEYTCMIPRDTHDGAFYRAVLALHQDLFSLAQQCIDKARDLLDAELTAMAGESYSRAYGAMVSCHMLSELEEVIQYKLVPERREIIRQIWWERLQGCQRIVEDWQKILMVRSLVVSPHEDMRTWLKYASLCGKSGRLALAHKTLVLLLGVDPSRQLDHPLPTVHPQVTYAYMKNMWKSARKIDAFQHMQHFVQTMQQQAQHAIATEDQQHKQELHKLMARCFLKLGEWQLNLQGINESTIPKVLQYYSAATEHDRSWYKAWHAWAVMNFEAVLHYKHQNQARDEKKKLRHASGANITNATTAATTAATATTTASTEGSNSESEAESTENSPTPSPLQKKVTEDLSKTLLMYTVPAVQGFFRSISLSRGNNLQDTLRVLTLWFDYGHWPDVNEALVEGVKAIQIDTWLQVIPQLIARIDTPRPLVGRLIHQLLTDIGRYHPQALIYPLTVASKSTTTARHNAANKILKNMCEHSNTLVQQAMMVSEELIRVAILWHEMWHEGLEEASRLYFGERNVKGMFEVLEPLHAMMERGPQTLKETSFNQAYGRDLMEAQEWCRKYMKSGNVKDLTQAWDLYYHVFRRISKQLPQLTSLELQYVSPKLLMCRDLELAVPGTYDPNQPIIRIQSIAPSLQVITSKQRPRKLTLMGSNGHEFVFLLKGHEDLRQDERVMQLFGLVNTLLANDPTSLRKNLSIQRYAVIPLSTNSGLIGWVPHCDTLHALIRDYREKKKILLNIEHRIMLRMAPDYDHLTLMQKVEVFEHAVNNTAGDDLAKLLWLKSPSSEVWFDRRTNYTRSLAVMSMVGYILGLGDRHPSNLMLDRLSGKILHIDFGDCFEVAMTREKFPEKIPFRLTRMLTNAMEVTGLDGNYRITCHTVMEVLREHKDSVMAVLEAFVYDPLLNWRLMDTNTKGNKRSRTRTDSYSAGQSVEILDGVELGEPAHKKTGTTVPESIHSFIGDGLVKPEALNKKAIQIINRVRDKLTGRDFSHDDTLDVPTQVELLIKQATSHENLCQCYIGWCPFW
T2 sequence (P42336 with tags, fused parts or gaps limits assumed): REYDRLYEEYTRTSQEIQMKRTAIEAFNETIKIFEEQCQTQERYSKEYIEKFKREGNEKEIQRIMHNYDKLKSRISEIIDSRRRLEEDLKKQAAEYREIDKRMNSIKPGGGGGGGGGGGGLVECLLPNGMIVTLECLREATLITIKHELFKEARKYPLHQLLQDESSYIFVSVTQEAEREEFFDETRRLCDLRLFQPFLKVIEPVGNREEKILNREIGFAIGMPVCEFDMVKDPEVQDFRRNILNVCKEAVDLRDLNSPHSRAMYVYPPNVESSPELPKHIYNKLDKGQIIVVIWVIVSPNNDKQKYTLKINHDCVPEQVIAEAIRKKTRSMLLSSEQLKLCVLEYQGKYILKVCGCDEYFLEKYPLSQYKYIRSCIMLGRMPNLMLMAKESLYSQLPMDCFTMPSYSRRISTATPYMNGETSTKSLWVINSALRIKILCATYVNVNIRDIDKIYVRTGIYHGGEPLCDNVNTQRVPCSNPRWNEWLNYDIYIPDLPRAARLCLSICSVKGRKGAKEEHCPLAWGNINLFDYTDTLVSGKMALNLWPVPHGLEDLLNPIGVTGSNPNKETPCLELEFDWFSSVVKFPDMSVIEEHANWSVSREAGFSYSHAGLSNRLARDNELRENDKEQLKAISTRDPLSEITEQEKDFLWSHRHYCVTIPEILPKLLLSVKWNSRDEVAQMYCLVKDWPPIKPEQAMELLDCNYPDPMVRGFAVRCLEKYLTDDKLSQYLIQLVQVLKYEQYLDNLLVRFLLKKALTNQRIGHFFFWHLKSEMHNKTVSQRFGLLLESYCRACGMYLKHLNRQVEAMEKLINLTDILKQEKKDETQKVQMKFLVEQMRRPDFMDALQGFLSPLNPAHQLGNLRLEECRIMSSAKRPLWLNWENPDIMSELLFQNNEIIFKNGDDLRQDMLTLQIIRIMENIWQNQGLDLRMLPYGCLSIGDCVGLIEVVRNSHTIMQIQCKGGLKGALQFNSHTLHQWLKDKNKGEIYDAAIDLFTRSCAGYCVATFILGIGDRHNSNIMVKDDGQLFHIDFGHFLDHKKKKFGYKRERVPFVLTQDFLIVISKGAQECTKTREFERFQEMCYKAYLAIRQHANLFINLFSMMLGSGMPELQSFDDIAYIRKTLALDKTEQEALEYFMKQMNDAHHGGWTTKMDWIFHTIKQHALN

The term IC50 denotes the concentration needed to halve the response being measured. For the compound `Cc1nn(CC(=O)N2CCCC2)cc1-n1c(=O)n(C)c2cnc3ccc(-c4cnc(N5CCCC5)nc4)cc3c21` [Example 247.4, 3-Methyl-1-[3-methyl-1-(2-oxo-2-pyrrolidin-1-yl-ethyl)-1H-pyrazol-4-yl)-8-(2-pyrrolidin-1-yl-pyrimidin-5-yl)-1,3-dihydro-imidazo[4,5-c]quinolin-2-one], the 50% inhibitory concentration (IC50) in test [1] is 34 nM; in test [2] it was 44 nM; in test [3] it was 41 nM; in test [4], 106 nM; in test [5], 4 nM.

Turning to `COc1cc(-c2ccc3ncc4c(c3c2)n(-c2cn(C)nc2C)c(=O)n4C)cnc1OC` [Example 204, 8-(5,6-Dimethoxy-pyridin-3-yl)-1-(1,3-dimethyl-1H-pyrazol-4-yl)-3-methyl-1,3-dihydro-imidazo[4,5-c]quinolin-2-one], the IC50 in test [2] was 8 nM; in test [3], 12 nM; in test [4], 9 nM; in test [5], below 0.5 nM.

As to `CCC(O)(CC)c1cncc(-c2ccc3ncc4c(c3c2)n(-c2cn(C)nc2C)c(=O)n4C)c1` [Example 216, 1-(1,3-Dimethyl-1H-pyrazol-4-yl)-8-[5-(1-ethyl-1-hydroxy-propyl)-pyridin-3-yl]-3-methyl-1,3-dihydro-imidazo[4,5-c]quinolin-2-one], the IC50 in test [1] is 4 nM; in test [2], 10 nM; in test [3], 57 nM; in test [4] it was 56 nM; in test [5], below 0.5 nM.

With `CCN(C)C(=O)Cn1cc(-n2c(=O)n(C)c3cnc4ccc(-c5ccc(-n6cccn6)cc5)cc4c32)c(C)n1` [Example 51.6, N-Ethyl-N-methyl-2-{3-methyl-4-[3-methyl-2-oxo-8-(4-pyrazol-1-yl-phenyl)-2,3-dihydro-imidazo[4,5-c]quinolin-1-yl]pyrazol-1-yl}-acetamide], the IC50 was 61 nM in test [6]; 27 nM in test [1]; 12 nM in test [2]; 12 nM in test [3]; 15 nM in test [4]; below 0.5 nM in test [5].

Take `CCn1cc(-n2c(=O)n(C)c3cnc4ccc(-c5ccc(-n6cccn6)cc5)cc4c32)c(C)n1` [Example 51.3, 1-(1-Ethyl-3-methyl-1H-pyrazol-4-yl)-3-methyl-8-(4-pyrazol-1-yl-phenyl)-1,3-dihydro-imidazo[4,5-c]quinolin-2-one]: the IC50 in test [1] is 6 nM; in test [2], 8 nM; in test [3], 9 nM; in test [4], 15 nM; in test [5], 2 nM.

For `CCNc1cc(-c2ccc3ncc4c(c3c2)n(-c2c(C)noc2C)c(=O)n4C)cnc1Cl` [Example 153.3, 8-(6-Chloro-5-ethylamino-pyridin-3-yl)-1-(3,5-dimethyl-isoxazol-4-yl)-3-methyl-1,3-dihydro-imidazo[4,5-c]quinolin-2-one], the IC50 was determined as 665 nM in test [1]; 34 nM in test [2]; 55 nM in test [3]; 112 nM in test [4]; 36 nM in test [5].

Regarding `CNc1ncc(-c2ccc3ncc4c(c3c2)n(-c2cn(C)nc2C)c(=O)n4C)cn1` [Example 80.1, 1-(1,3-Dimethyl-1H-pyrazol-4-yl)-3-methyl-8-(2-methylamino-pyrimidin-5-yl)-1,3-dihydro-imidazo[4,5-c]quinolin-2-one], the IC50 in test [1] came to 13 nM; in test [2] it was 13 nM; in test [3], 13 nM; in test [4] it was 5 nM; in test [5], 3 nM.

In the case of `COCc1ncc(-c2ccc3ncc4c(c3c2)n(-c2cn(C)nc2Cl)c(=O)n4C)cc1OC` [Example 195.4, 1-(3-Chloro-1-methyl-1H-pyrazol-4-yl)-8-(5-methoxy-6-methoxymethyl-pyridin-3-yl)-3-methyl-1,3-dihydro-imidazo[4,5-c]quinolin-2-one], the IC50 came to 8 nM in test [1]; 20 nM in test [2]; 23 nM in test [3]; 21 nM in test [4]; 2 nM in test [5].
